Measured values reported in ChEMBL document CHEMBL1177803, “In vitro antituberculosis activities of the constituents isolated from Haloxylon salicornicum” (2010).
Converted amounts (≈) assume the structure as drawn. The source made the active and inactive calls. The calls are words filed in the database; no cut-off is given here.

How the values were obtained:
[1] = test system: Mycobacterium tuberculosis; assay: Antituberculosis activity against Mycobacterium tuberculosis H37Rv ATCC 27294 in stationary phase culture at pH 5.8 up to 200 ug/ml after 3 days followed by washout from day 4 to week 4 by microbroth dilution method; assay type: functional, organism-based
[2] = test system: Mycobacterium tuberculosis; assay: Antituberculosis activity against Mycobacterium tuberculosis H37Rv ATCC 27294 after 2 weeks by microbroth dilution method; assay type: functional; conditions: H37Rv ATCC 27294, 336 h

In the case of OCCCCCCCCCCCCCCCCCCCCC1CCCCC1, the Activity [1] is reported as “inactive” and the MIC [2] is reported as 100 µg/mL (≈ 263 µM).

For OCCCCCCCCCCCCCCCCCCCCCCC1CCCCC1, the Activity [1] was “inactive” and the MIC [2] was 100 µg/mL (≈ 245 µM).

For CCCCCCCCCCCCCCCC(=O)O[C@H]1CC[C@]2(C)[C@H]3CC=C4[C@H]5CC(C)(C)CC[C@]5(C)CC[C@@]4(C)[C@]3(C)CC[C@H]2C1(C)C, the Activity [1] was “inactive” and the MIC [2] was 100 µg/mL (≈ 150 µM).

CC[C@H](/C=C/[C@@H](C)[C@H]1CC[C@H]2[C@@H]3CCC4=C[C@@H](O[C@@H]5O[C@H](CO)[C@@H](O)[C@H](O)[C@H]5O)CC[C@]4(C)[C@H]3CC[C@]12C)C(C)C was tested, and the Activity [1] was “inactive” and the MIC [2] was 100 µg/mL (≈ 174 µM).

With CC[C@H](/C=C/[C@@H](C)[C@H]1CC[C@H]2[C@@H]3CCC4=C[C@@H](O[C@@H]5O[C@@H](C)[C@H](O)[C@@H](O)[C@H]5O)CC[C@]4(C)[C@H]3CC[C@]12C)C(C)C the Activity [1] was “inactive” and the MIC [2] was 50 µg/mL (≈ 89.5 µM).

With CCC(CC[C@@H](C)[C@H]1CC[C@H]2[C@@H]3CC=C4C=CCC[C@]4(C)[C@H]3CC[C@]12C)C(C)C (some centres not stated) the Activity [1] was “inactive” and the MIC [2] was 100 µg/mL (≈ 252 µM).

With C[C@H]1[C@H](C)CC[C@]2(C)CC[C@]3(C)C(=CC[C@@H]4[C@@]5(C)CCC[C@H](C)[C@@H]5CC[C@]43C)[C@H]12 the Activity [1] was “inactive” and the MIC [2] was 100 µg/mL (≈ 252 µM).

CCCCC(O)CCCCCCCCCCCCCCCCCCCC(=O)CCC (configuration not stated) was tested, and the Activity [1] was “inactive” and the MIC [2] was 100 µg/mL (≈ 235 µM).

For CC(C)[C@@H](C)/C=C/[C@@H](C)[C@H]1CC[C@@H]2[C@]1(C)CC=C1[C@]23C=C[C@]2(C[C@@H](O)CC[C@]12C)OO3, the Activity [1] was “inactive” and the MIC [2] was 100 µg/mL (≈ 234 µM).

In the case of COc1c(O)cc2ccc(=O)oc2c1OC, the Activity [1] is reported as “inactive” and the MIC [2] is reported as 100 µg/mL (≈ 450 µM).

CC(C)[C@@H](C)/C=C/[C@@H](C)[C@H]1CC[C@@H]2[C@]1(C)CC[C@H]1[C@]23C=C[C@]2(C[C@@H](O)CC[C@]12C)OO3 [ERGOSTEROL PEROXIDE] was tested, and the Activity [1] was “inactive” and the MIC [2] was 100 µg/mL (≈ 233 µM).

For O=C(/C=C\C=C/CCCCCCCCCCCCCCCCCO)N1CCCCC1 [HALOXYLINE A], the Activity [1] was “inactive” and the MIC [2] was 100 µg/mL (≈ 238 µM).

For O=C(/C=C\C=C/CCCCCCCCCCCCCCCCCO)N1CCC[C@@H](O)C1 [HALOXYLINE B], the Activity [1] was “inactive” and the MIC [2] was 50 µg/mL (≈ 115 µM).

NNC(=O)c1ccncc1 [ISONIAZID] was tested, and the Activity [1] was “inactive” and the MIC [2] was 0.02 µg/mL (≈ 0.146 µM).

C=C(C)[C@@H]1CC[C@]2(C)CC[C@]3(C)[C@H](CC[C@@H]4[C@@]5(C)CC[C@H](OC(C)=O)C(C)(C)[C@@H]5CC[C@]43C)[C@@H]12 [LUPENYL ACETATE] was tested, and the Activity [1] was “inactive” and the MIC [2] was 100 µg/mL.

With C=C(C)[C@@H]1CC[C@]2(C)CC[C@]3(C)[C@H](CC[C@@H]4[C@@]5(C)CC[C@H](O)C(C)(C)[C@@H]5CC[C@]43C)[C@@H]12 [LUPEOL] the Activity [1] was “inactive” and the MIC [2] was 100 µg/mL (≈ 234 µM).

For CC[C@H](/C=C/[C@@H](C)[C@H]1CC[C@H]2[C@@H]3CC=C4C[C@@H](O[C@@H]5O[C@H](CO)[C@@H](O)[C@H](O)[C@H]5O)CC[C@]4(C)[C@H]3CC[C@]12C)C(C)C [STIGMASTEROL GLUCOSIDE], the Activity [1] was “inactive” and the MIC [2] was 50 µg/mL (≈ 87 µM).

In the case of CC[C@H](/C=C/[C@@H](C)[C@H]1CC[C@H]2[C@@H]3CC=C4C[C@@H](O)CC[C@]4(C)[C@H]3CC[C@]12C)C(C)C [STIGMASTEROL], the Activity [1] is reported as “inactive” and the MIC [2] is reported as 100 µg/mL (≈ 242 µM).

With C[C@H]1[C@H](C)CC[C@]2(C(=O)O)CC[C@]3(C)C(=CC[C@@H]4[C@@]5(C)CC[C@H](O)C(C)(C)[C@@H]5CC[C@]43C)[C@H]12 [URSOLIC ACID] the Activity [1] was “inactive” and the MIC [2] was 100 µg/mL (≈ 219 µM).

In the case of CC(=O)O[C@H]1CC[C@]2(C)[C@H]3CC=C4[C@@H]5CC(C)(C)CC[C@]5(C)CC[C@@]4(C)[C@]3(C)CC[C@H]2C1(C)C [beta-AMYRIN ACETATE], the Activity [1] is reported as “inactive” and the MIC [2] is reported as 100 µg/mL.

In the case of CC1(C)CC[C@]2(C)CC[C@]3(C)C(=CC[C@@H]4[C@@]5(C)CC[C@H](O)C(C)(C)[C@@H]5CC[C@]43C)[C@@H]2C1 [beta-AMYRIN], the Activity [1] is reported as “inactive” and the MIC [2] is reported as 100 µg/mL (≈ 234 µM).
